# Assay results as given in patent publication US20060040870A1, “Enhancement of apoptosis by caspase-9 inhibitors” (priority 2004, published 2006).
# The star is where a group is joined. Cbz = O=C(OCc1ccccc1)*; CH2F = FC*
# How the values were obtained:
# BLIN-2 cells = assay: Apoptosis by Annexin V staining and flow cytometry, BLIN-2; format: cell-based, human; conditions: BLIN-2, 50 μM, 18 hours
# Experimental: (§1) Flow cytometry. Quantitation of apoptotic events was conducted using a FACS Calibur (BD Immunocytometry Systems). All analyses were conducted on cells with lymphoid light scatter characteristics (i.e., low to medium forward scatter and low 90° side scatter).
# (§2) iii. Annexin V. FITC-labeled Annexin V (BD Pharmingen, San Diego, Calif.) was used to detect external phosphatidylserine residues appearing on the external surface of early apoptotic cells (Koopman Blood. 1994;84:1415-1420). Cells were stained according to the manufacturers recommendations.
# (§3) General experimental strategy. BLIN cell lines were removed from fibroblast monolayers, washed once and resuspended to 7.5×10^5/ml in X-VIVO 10. Two hundred μL of resuspended cells were added to 96-well flat-bottom microtiter plates (ISC Bioexpress, Kaysville, Vt.), followed by 0.5-1.0 μL of caspase inhibitors in DMSO. An identical volume of DMSO alone was added to separate wells as a vehicle control. This final DMSO concentration of 0.25-0.5% vol/vol had no adverse affect on any of the BLIN cell lines. At the indicated times the entire content of individual wells was harvested and stained in the fluorescent protocols described above.
# (§4) The inventors carried out experiments to test the influence of specific amino acid substitutions on the proapoptotic activity Z-LEHD-fmk. […]
# [1] = system: PARP (caspase-3/caspase-7 substrate); assay: Western blotting of PARP cleavage in BLIN-3 and BLIN-4L; format: cell-based, human; conditions: overnight incubation of BLIN-3 and BLIN-4L cells, 50 μM
# Experimental: Western blotting. This method was conducted essentially as previously described.^20 The antibodies used were: rabbit anti-caspase-2 (catalog # sc-625, Santa Cruz Biotechnology Inc., Santa Cruz, Calif.), rabbit anti-caspase-3 (catalog # 9661, Upstate Cell Signaling Solutions, Waltham, Mass.), rabbit anti-caspase-6 (catalog # 9761, Upstate), rabbit anti-caspase-9 (catalog # 9502, Upstate), mouse anti-PARP (catalog # 556494, Pharmingen), and rabbit anti-Bid (catalog # AF846, R&D Systems). The antibodies to caspase-2 and caspase-9 were generated to the procaspase isoforms, whereas the antibodies to caspase-3 and caspase-6 were generated to cleavage products.
# As expected, inclusion of 50 μM PCi had no effect. The degree of PARP cleavage in the presence of C9i (greater in BLIN-3 than BLIN-4L) correlated with the percentage of Annexin V+ cells (FIG. 3).
# [2] = system: DAUDI Burkitt lymphoma cell line; assay: Apoptosis by Annexin V staining and flow cytometry, DAUDI; format: cell-based; conditions: 50 μM, 18 hours
# Experimental: (§5) FIG. 4 is a pair of graphs showing the effect of […] on various cell lines, as determined by Annexin V staining and flow cytometry. The cells included the B-cell precursor ALL cell lines […], and NALM-6, the RAMOS, RAJI, and DAUDI Burkitt lymphoma cell lines, the CCRF-CEM, JURKAT, and H9 T lymphoma cell lines, the K-562 erythroleukemia cell line, and resting or activated (i.e., CD3/CD28 cross-linked) normal human T cells. […] Flow cytometry. Quantitation of apoptotic events was conducted using a FACS Calibur (BD Immunocytometry Systems). All analyses were conducted on cells with lymphoid light scatter characteristics (i.e., low to medium forward scatter and low 90° side scatter). iii. Annexin V. […] Cells were stained according to the manufacturers recommendations.
# [3] = system: CCRF-CEM T lymphoma cell line; assay: Apoptosis by Annexin V staining and flow cytometry, CCRF-CEM; format: cell-based; conditions: 50 μM, 18 hours
# Experimental: as §5
# BLIN-3 cells = assay: Loss of mitochondrial transmembrane potential (TMRE) and YO-PRO permeability in BLIN-3; format: cell-based, human; conditions: BLIN-3, FIG. 2
# Experimental: Numbers in the histograms indicate the percentage of PI^- cells that underwent a loss of Δψm. Numbers in the contour plots indicate the percentage of Annexin V^+/PI^- cells. […] Numbers in the contour plots indicate the percentage of YO^- PRO^+/PI^- cells. Numbers in the histograms indicate the percentage of PI^- cells that underwent a loss of Δψm. Flow cytometry. Quantitation of apoptotic events was conducted using a FACS Calibur (BD Immunocytometry Systems). All analyses were conducted on cells with lymphoid light scatter characteristics (i.e., low to medium forward scatter and low 90° side scatter). i. Mitochondrial transmembrane potential (Δψm). The cationic lipophilic fluorescent dye tetramethylrhodamine, ethyl ester, perchlorate (TMRE) was purchased from Molecular Probes, Inc. (Eugene, Oreg.). TMRE has a high degree of membrane permeability and accumulates into mitochondria in accord with the Nernstian equation (Farkas Biophys J. 1989;56:1053-1069). Cells were washed once and re-suspended to 0.5-1.0×10^6/ml in X-VIVO 10. TMRE was added to a final concentration of 50 nM and the cells were incubated in the dark at 37° C. for 15 minutes. […] ii. YO-[…]. The green fluorescent DNA intercalant dye YO-PRO-1 (Idziorek J Immunol Methods. 1995;185:249-258) was purchased from Molecular Probes as the Vybrant Apoptosis Assay Kit #4. […]
# [4] = system: RAJI Burkitt lymphoma cell line; assay: Apoptosis by Annexin V staining and flow cytometry, RAJI; format: cell-based; conditions: 50 μM, 18 hours
# Experimental: as §5
# BLIN-1 cells = assay: Apoptosis by Annexin V staining and flow cytometry, BLIN-1; format: cell-based, human; conditions: BLIN-1, 50 μM, 18 hours
# Experimental: as §1, §2, §3, §4
substance,measurement,setting,value
Z-LEHD-fmk (Cbz-LEHD-CH2F; SMILES CC(C)C[C@H](NC(=O)OCc1ccccc1)C(=O)N[C@@H](CCC(=O)O)C(=O)N[C@@H](Cc1c[nH]cn1)C(=O)N[C@@H](CC(=O)O)C(=O)CF) [C9i],sensitivity (fold-increase in Annexin V+ cells vs DMSO),BLIN-2 cells,less sensitive than the others
same,cleavage of the caspase-3/caspase-7 substrate PARP,[1],led to cleavage
same,sensitivity (fold-increase in Annexin V+ cells vs DMSO),[2],insensitive
same,sensitivity (fold-increase in Annexin V+ cells vs DMSO),[3],extremely sensitive
same,"enhancement of apoptosis (YO-PRO+/PI− cells, reduced TMRE staining) versus concentration",BLIN-3 cells,dose-dependent
same,sensitivity (fold-increase in Annexin V+ cells vs DMSO),[4],insensitive
same,sensitivity (fold-increase in Annexin V+ cells vs DMSO),BLIN-1 cells,sensitive
